Data: ChEMBL document CHEMBL5154828 (J Med Chem, 2022)
The source made the active and inactive calls. No cut-off for these calls is given here.

What was measured:
[1] = biological target: Estrogen receptor (Homo sapiens, UniProt P03372, Y537S); assay: Antagonist activity at ERalpha Y537S mutant degradation in human SK-BR-3 cells incubated for 24 hrs in presence of beta-estradiol by luciferase gene assay; format: cell-based
[2] = Drug concentration in rat plasma at 20 mg/kg, po measured after 2 hrs; format: ADME, organism-based
[3] = biological target: T1, Estrogen receptor (Homo sapiens) (UniProt P03372); assay: Induction of ERalpha degradation in human CAMA-1 cells incubated 24 hrs by Western blot analysis; format: cell-based; settings: dose 0.1-1000 nM, DDE = dose-dependent effect
T1 sequence (whole entry): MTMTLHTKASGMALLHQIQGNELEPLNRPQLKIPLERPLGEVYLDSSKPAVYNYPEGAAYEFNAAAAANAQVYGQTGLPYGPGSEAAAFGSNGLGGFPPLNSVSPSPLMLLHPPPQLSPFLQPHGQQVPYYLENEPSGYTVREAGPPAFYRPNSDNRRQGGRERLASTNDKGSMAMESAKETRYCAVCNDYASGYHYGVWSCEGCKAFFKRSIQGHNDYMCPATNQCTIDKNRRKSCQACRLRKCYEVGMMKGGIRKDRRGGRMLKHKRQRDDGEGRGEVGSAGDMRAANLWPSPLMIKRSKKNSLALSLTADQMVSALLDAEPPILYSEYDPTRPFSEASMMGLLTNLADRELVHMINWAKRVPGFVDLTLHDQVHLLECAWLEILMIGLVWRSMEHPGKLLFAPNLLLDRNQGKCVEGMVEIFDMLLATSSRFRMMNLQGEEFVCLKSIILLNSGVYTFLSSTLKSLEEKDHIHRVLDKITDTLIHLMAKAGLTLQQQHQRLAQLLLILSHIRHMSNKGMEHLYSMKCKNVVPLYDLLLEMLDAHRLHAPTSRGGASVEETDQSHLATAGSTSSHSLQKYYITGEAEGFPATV

[4] = AUC (0 to t) in Sprague-Dawley rat at 10 mg/kg, po measured up to 24 hrs by LC/MS/MS analysis; format: ADME, organism-based; set-up: time < 24 hrs, dose 10 mg/kg, route po; settings: in vivo
[5] = test system: MCF7; assay: Antiproliferative activity against human MCF7 cells assessed as inhibition of cell growth measured after 6 days by cell titre glo luminescence assay; settings: MCF7, 144 h
[6] = Toxicity in athymic mouse xenografted with tamoxifen-sensitive human MCF7 cells assessed as body weight loss at 5 to 15 mg/kg, po qd incubated for 21 days; format: organism-based; settings: in vivo, 504 h, dose 5-15 mg/kg, time 21 day
[7] = Cmax in ICR mouse at 5 mg/kg, po measured up to 24 hrs by LC/MS/MS analysis; format: ADME, organism-based; set-up: dose 5 mg/kg, time < 24 hrs, route po; settings: in vivo
[8] = Ratio of drug concentration in rat breast to plasma at 20 mg/kg, po measured after 2 hrs
[9] = biological target: T1, Estrogen receptor (Homo sapiens); assay: Induction of ERalpha degradation in human MCF7 cells at 5 uM incubated 24 hrs by Western blot analysis; format: cell-based
[10] = Ratio of drug concentration in rat brain to plasma at 20 mg/kg, po measured after 2 hrs
[11] = Drug concentration in rat blood at 20 mg/kg, po measured after 2 hrs; format: ADME, organism-based; settings: whole blood, read-out: Ct
[12] = test system: CAMA-1; assay: Antiproliferative activity against human CAMA-1 cells assessed as inhibition of cell growth measured after 8 days by cell titre glo luminescence assay; format: functional, cell-based; settings: time 8.0 day
[13] = Volume of distribution at steady state in ICR mouse at 2 mg/kg, iv measured up to 24 hrs by LC/MS/MS analysis; format: ADME, organism-based; settings: in vivo, read-out: Vdss
[14] = test system: BT-474; assay: Antiproliferative activity against human BT-474 cells assessed as inhibition of cell growth measured after 7 days by cell titre glo luminescence assay; format: functional, cell-based; settings: time 7.0 day
[15] = Ratio of drug concentration in rat blood to plasma at 20 mg/kg, po measured after 2 hrs; settings: blood and plasma
[16] = Elimination half life in Sprague-Dawley rat at 10 mg/kg, po measured up to 24 hrs by LC/MS/MS analysis; format: ADME, organism-based; settings: in vivo, read-out: beta t1/2 (converted)
[17] = AUC (0 to t) in ICR mouse at 5 mg/kg, po measured up to 24 hrs by LC/MS/MS analysis; format: ADME, organism-based; set-up: time < 24 hrs, dose 5 mg/kg, route po; settings: in vivo
[18] = biological target: T1, Estrogen receptor (Homo sapiens); assay: Induction of ERalpha degradation in human MCF7 cells at 1 nM by Western blot analysis; format: cell-based; settings: time 0.5-24 hrs, TDE = time-dependent effect
[19] = Cmax in ICR mouse at 2 mg/kg, iv measured up to 24 hrs by LC/MS/MS analysis; format: ADME, organism-based; set-up: dose 2 mg/kg, time < 24 hrs, route iv; settings: in vivo
[20] = MRT in ICR mouse at 2 mg/kg, iv measured up to 24 hrs by LC/MS/MS analysis; format: ADME, organism-based; settings: in vivo
[21] = MRT in Sprague-Dawley rat at 10 mg/kg, po measured up to 24 hrs by LC/MS/MS analysis; format: ADME, organism-based; settings: in vivo
[22] = test system: Estrogen receptor (Homo sapiens), P03372 [Y537S]; assay: Induction of ERalpha Y537S mutant degradation in human MCF7 cells at 10 to 100 nM incubated for 4 hrs by Western blot analysis; format: cell-based; settings: dose 10-100 nM
[23] = biological target: T2, Estrogen receptor (Homo sapiens, UniProt P03372); assay: Induction of ERalpha degradation in human MCF7 cells incubated for 24 hrs by Western blot analysis; format: cell-based
T2 sequence (P03372 whole entry): T1 sequence (whole entry)

[24] = biological target: T1, Estrogen receptor (Homo sapiens); assay: Induction of ERalpha degradation in human BT-474 cells incubated 24 hrs by Western blot analysis; format: cell-based; settings: dose 0.1-1000 nM, DDE = dose-dependent effect
[25] = Drug concentration in rat kidney at 20 mg/kg, po measured after 2 hrs; format: ADME, organism-based; settings: read-out: Ct
[26] = Drug concentration in rat breast at 20 mg/kg, po measured after 2 hrs; format: ADME, organism-based; settings: read-out: Ct
[27] = biological target: T1, Estrogen receptor (Homo sapiens); assay: Induction of ERalpha degradation in human T47D cells incubated 24 hrs by Western blot analysis; format: cell-based; settings: dose 0.1-1000 nM, DDE = dose-dependent effect
[28] = biological target: Estrogen receptor (Homo sapiens, UniProt P03372, D538G); assay: Antagonist activity at ERalpha D538G mutant degradation in human SK-BR-3 cells incubated for 24 hrs in presence of beta-estradiol by luciferase gene assay; format: cell-based
[29] = Elimination half life in ICR mouse at 5 mg/kg, po measured up to 24 hrs by LC/MS/MS analysis; format: ADME, organism-based; settings: in vivo, read-out: beta t1/2 (converted)
[30] = Tmax in Sprague-Dawley rat at 10 mg/kg, po measured up to 24 hrs by LC/MS/MS analysis; format: ADME, organism-based; settings: in vivo
[31] = Drug concentration in rat brain at 20 mg/kg, po measured after 2 hrs; format: ADME, organism-based; settings: read-out: Ct
[32] = Ratio of drug concentration in rat uterus to plasma at 20 mg/kg, po measured after 2 hrs; settings: female
[33] = test system: MCF7; assay: Antitumor activity against tamoxifen-sensitive human MCF7 cells xenografted in athymic mouse assessed as reduction in tumor growth at 15 mg/kg, po qd measured after 21 days; settings: 504 h, read-out: TGI
[34] = Ratio of drug concentration in rat kidney to plasma at 20 mg/kg, po measured after 2 hrs
[35] = Tmax in ICR mouse at 5 mg/kg, po measured up to 24 hrs by LC/MS/MS analysis; format: ADME, organism-based; settings: in vivo
[36] = Antiproliferative activity against human MCF-7/TAMR-1 cells assessed as inhibition of cell growth measured after 8 days by cell titre glo luminescence assay; settings: MCF-7/TAMR-1, 192 h

Estrogen receptor (Homo sapiens), P03372 [Y537S], sequence (P03372 whole entry Y537S): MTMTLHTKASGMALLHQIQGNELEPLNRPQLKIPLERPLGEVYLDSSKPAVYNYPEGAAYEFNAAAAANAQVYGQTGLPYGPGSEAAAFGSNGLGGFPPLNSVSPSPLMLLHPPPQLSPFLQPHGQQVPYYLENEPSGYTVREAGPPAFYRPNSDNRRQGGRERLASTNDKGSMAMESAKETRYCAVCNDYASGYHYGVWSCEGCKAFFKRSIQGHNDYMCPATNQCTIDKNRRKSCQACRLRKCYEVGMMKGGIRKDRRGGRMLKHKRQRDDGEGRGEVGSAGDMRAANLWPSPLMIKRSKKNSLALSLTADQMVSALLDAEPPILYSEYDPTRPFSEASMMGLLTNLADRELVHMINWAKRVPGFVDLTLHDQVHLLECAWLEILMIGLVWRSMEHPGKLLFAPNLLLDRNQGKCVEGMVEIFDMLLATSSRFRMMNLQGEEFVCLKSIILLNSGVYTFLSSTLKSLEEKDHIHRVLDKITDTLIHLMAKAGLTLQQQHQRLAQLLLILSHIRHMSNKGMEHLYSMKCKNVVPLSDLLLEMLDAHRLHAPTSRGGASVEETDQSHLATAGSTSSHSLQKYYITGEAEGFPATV
Estrogen receptor (Homo sapiens, UniProt P03372, Y537S), sequence (P03372 whole entry Y537S): as above
Estrogen receptor (Homo sapiens, UniProt P03372, D538G), sequence (P03372 whole entry D538G): as the sequence (P03372 whole entry Y537S) above, with S537Y, D538G counted along it

CC(F)(F)c1cc(Cl)ccc1-c1sc2c(ccc3[nH]ncc32)c1Oc1ccc(OC2CN(CCCF)C2)cc1
IC50 [1]: 10.3 nM
concentration at 2 h [2]: 609 ng/mL
Activity [3]: Dde
AUC(0-t) at 24 h [4]: 3180 ng·h/mL
IC50 [5]: 1 nM
Activity [6]: Non-Toxic
Cmax [7]: 768 ng/mL
Kp at 2 h [8]: 4
Activity [9]: Active
Kp at 2 h [10]: 0.7
concentration at 2 h [11]: 480 ng/mL
Activity [12]: Active
Vd [13]: 2.7 L/kg
Activity [14]: Active
blood plasma ratio at 2 h [15]: 0.8
half-life [16]: 4.6 h
AUC(0-t) at 24 h [17]: 7710 ng·h/mL
Activity [18]: Tde
Cmax [19]: 764 ng/mL
MRT [20]: 6.4 h
MRT [21]: 7 h
Activity [22]: Active
EC50 [23]: 1.1 nM
Activity [24]: Dde
concentration at 2 h [25]: 7100 ng/mL
concentration at 2 h [26]: 2410 ng/mL
Activity [27]: Dde
IC50 [28]: 16.1 nM
half-life [29]: 5.7 h
Tmax [30]: 3.3 h
concentration at 2 h [31]: 442 ng/mL
Kp at 2 h [32]: 3.6
inhibition in vivo at 15 mg/kg [33]: -17%
Kp at 2 h [34]: 11.7
Tmax [35]: 2.7 h
IC50 [36]: 3.2 nM
